From paper PMC12314183, “RM2 and DB15 analogues bearing [^177Lu]Lu-DOTAGA via different linkers, as radiotherapeutics: a head-to-head comparative study” (EJNMMI Radiopharmacy and Chemistry, 2025)
Blank lines part the entries; values can stand above or below the compound they belong to.

Experiments:
[1] = target: T1, GRPR (Homo sapiens, UniProt P30550); assay: Receptor affinity and kinetics by LigandTracer on living PC-3 cells; assay type: binding
T1 construct: host or cells: PC-3 (human prostate cancer cell line)
T1 sequence (P30550 whole entry): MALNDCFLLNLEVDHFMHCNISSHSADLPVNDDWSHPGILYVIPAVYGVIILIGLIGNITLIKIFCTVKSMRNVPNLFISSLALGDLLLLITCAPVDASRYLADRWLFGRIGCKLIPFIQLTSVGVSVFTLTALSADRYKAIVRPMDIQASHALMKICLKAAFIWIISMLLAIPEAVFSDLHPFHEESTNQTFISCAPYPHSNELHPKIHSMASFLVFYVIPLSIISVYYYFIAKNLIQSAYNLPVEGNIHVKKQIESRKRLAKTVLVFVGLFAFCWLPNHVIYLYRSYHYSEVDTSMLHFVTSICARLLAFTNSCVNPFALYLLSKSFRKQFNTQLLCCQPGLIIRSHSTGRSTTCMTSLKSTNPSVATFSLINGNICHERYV
Protocol: Receptor affinity was measured using a LigandTracer yellow (Ridgeview Instruments AB, Uppsala, Sweden). For each measurement 3 million PC-3 cells were seeded in 100 mm dishes (Corning St. Oneonta, N.Y., USA) the day before the experiment. Three concentrations for each radioligand were tested (1, 3 and 5 nM) in order to determine the association values. After reaching plateau, the media containing the radioligands were removed, fresh complete media were introduced in the plates and the dissociation phase was measured overnight.

[2] = test system: PC-3 xenograft bearing mice; design: AUC Kidneys: unit not given beside the values; conditions: mouse, in vivo
[3] = test system: tumours; conditions: ref Dumont et al. [2013], cited from earlier work
Source text: For [^177Lu]Lu-RM2 (Dumont et al. [2013]), the reported dose per animal was 250 pmol peptide corresponding to 4.63 MBq.

[4] = 5 min pi, ref Nock et al. [2017]; cited from earlier work
Source text: (§1) In comparison with [^177Lu]Lu-NeoBomb1 (Dalm et al. [2017]; Nock et al. [2017]), [^177Lu]Lu-AU-SAR-M1 utilizes a different chelator (DOTAGA for AU-SAR-M1 and DOTA for NeoBomb1).

[5] = test system: PC-3 xenograft bearing mice; conditions: 4 h pi, ref Dalm et al. [2017], cited from earlier work
Source text: as §1

[6] = test system: PC-3 xenograft bearing mice; assay: Biodistribution in PC-3 xenograft bearing mice; conditions: mouse, in vivo
Protocol: The biodistribution profile for the four radioligands was determined in female Balb/c nu/nu mice. All the animals were subcutaneously implanted with a suspension of 8 × 10^6 PC-3 cells in the right hind leg. After approximately 3–4 weeks, tumours were developed and animals were randomized in groups of four (with the exception of the Block groups comprising instead 3 animals). For each radioligand 3 groups were used, namely, 4 h, 23 h pi and 4 h Block. Each animal received 2.82 mg of sacubitril (in the form of 12 mg of an Entresto pill suspension) per os and after 30 min, a bolus iv injection of 100–110 kBq of [^177Lu]Lu-peptide (corresponding to 100 pmol total peptide). Animals were euthanized at the predetermined time points and tissues of interest and xenografts were collected, weighted and their activity content was measured in the gamma counter. […] Statistical analysis was performed using GraphPad Prism 10 and a two-way ANOVA with Tuckey’s post hock analysis. Area under curve for kidneys and tumours was estimated by fitting a one-phase decay model and calculating the area under the resulting equation.

[7] = living PC-3 cells, 1:1 model used (footnote)

ka1 [1, 7]: 90900 M⁻¹ s⁻¹ | kd1 [1, 7]: 6.44 × 10^–7 s^−1 | AUC Kidneys [2]: 68 | AUC Tumour [2]: 259 | AUC ratio Tumour/Kidneys [2]: 3.8 | Tumour-to-Kidneys AUC ratio, fold higher than [^177Lu]Lu-AU-RM26-M4 [2]: 1.6 fold | Tumour-to-Kidneys AUC ratio, fold higher than [^177Lu]Lu-AU-SAR-M1 [2]: 1.4 fold
Compound: CCNC(=O)[C@H](CC(C)C)NC(=O)[C@H](Cc1c[nH]cn1)NC(=O)CN(C)C(=O)[C@@H](NC(=O)[C@H](C)NC(=O)[C@H](Cc1c[nH]c2ccccc12)NC(=O)[C@H](CCC(N)=O)NC(=O)[C@@H](Cc1ccccc1)NC(=O)COCC(=O)Nc1ccc(CNC(=O)[C@H](CCCNC(=N)N)NC(=O)CCC(C(=O)O)N2CCN(CC(=O)O)CCN(CC(=O)O)CCN(CC(=O)O)CC2)cc1)C(C)C (some centres unmarked) [[^177Lu]Lu-AU-SAR-M2, DOTAGA-Arg-AMA-DIG-SAR, metal not drawn]

Compound: DOTA-4-amino-1-carboxymethyl-piperidine-DPhe-Gln-Trp-Ala-Val-Gly-His-Sta-Leu-NH2 [[^177Lu]Lu-RM2]
tumour uptake ([3]; 4 h pi, 250 pmol peptide, 4.63 MBq): 10.97 ± 0.99 %IA/g | activity uptake in pancreas ([3]; 4 h pi): 0.70 ± 0.12 %IA/g | activity remaining in the tumours ([3]; 24 h pi relative to 4 h pi): approximately 50%

AUC Kidneys [2]: 56 | AUC Tumour [2]: 62
Compound: CC(C)C[C@H](NC(=O)C[C@H](O)[C@H](CC(C)C)NC(=O)[C@H](Cc1c[nH]cn1)NC(=O)CN(C)C(=O)[C@@H](NC(=O)[C@H](C)NC(=O)[C@H](Cc1c[nH]c2ccccc12)NC(=O)[C@H](CCC(N)=O)NC(=O)[C@@H](Cc1ccccc1)NC(=O)CN1CCC(NC(=O)COCCOCCNC(=O)CCC(C(=O)O)N2CCN(CC(=O)O)CCN(CC(=O)O)CCN(CC(=O)O)CC2)CC1)C(C)C)C(N)=O (some centres unmarked) [[^177Lu]Lu-AU-RM26-M2, DOTAGA-PEG2-Pip-[NMe-Gly^11]RM26, metal not drawn]

Compound: DOTA-AMA-DIG-DPhe-Gln-Trp-Ala-Val-Gly-His-NHCH[(CH2-CH(CH3)2]2 [[^177Lu]Lu-NeoBomb1, Lu-177-based GRPR-antagonist already tested in patients]
intact peptide detected in mice circulation [4]: 95% | tumour values ([5]; PC-3 xenograft bearing mice, 200 pmol – 1 MBq): 17.9 ± 3.3 %IA/g | kidneys uptake [5]: 2.5%

Compound: CCNC(=O)[C@H](CC(C)C)NC(=O)[C@H](Cc1c[nH]cn1)NC(=O)CN(C)C(=O)[C@@H](NC(=O)[C@H](C)NC(=O)[C@H](Cc1c[nH]c2ccccc12)NC(=O)[C@H](CCC(N)=O)NC(=O)[C@@H](Cc1ccccc1)NC(=O)COCC(=O)Nc1ccc(CNC(=O)CCC(C(=O)O)N2CCN(CC(=O)O)CCN(CC(=O)O)CCN(CC(=O)O)CC2)cc1)C(C)C (some centres unmarked) [[^177Lu]Lu-AU-SAR-M1, DOTAGA-AMA-DIG-SAR, metal not drawn]
ka1 ([1]; living PC-3 cells, 1, 3 and 5 nM, 1:2 model): 65700 M⁻¹ s⁻¹ | ka2 ([1]; living PC-3 cells, 1:2 model): 614000 M⁻¹ s⁻¹ | kd1 ([1]; living PC-3 cells, 1:2 model): 1.76 × 10^–6 s^−1 | kd2 ([1]; living PC-3 cells, 1:2 model): 7.43 × 10^–4 s^−1 | AUC Kidneys [2]: 45 | AUC Tumour [2]: 242 | AUC ratio Tumour/Kidneys [2]: 5.4 | tumour-to-kidney ratio for the estimated AUC, times better than the next candidate [6]: 1.4 times
